Converted amounts (≈) assume the structure as drawn. Read-outs that look alike come from different tables or passages of the source. Where no end group is shown, it is not given here.
Assays:
[1] = tested on: M. tuberculosis-induced TNF formation of human peripheral blood mononuclear cells; test: M. tuberculosis supernatant-induced TNFα formation in human mononuclear cells (ELISA); type: cell-based; settings: for Inhibition of M. tuberculosis-induced TNF formation (in words): FIG. 5
[2] = tested on: TLR2/6-activated keratinocytes; test: FSL-1 (TLR2/6)-activated keratinocytes: IL-8 ELISA, Western Blot, real-time PCR; type: cell-based, human; settings: FSL-1 stimulation, 10:1 weight ratio
Experimental: Thus, the effect of Pep19-2.5 and Pep19-4LF on the toxin (pathogenicity factor) FSL-1 (fibroblast-stimulating lipopeptide), a TLR-2/6 activating compound, was checked.
(§1) The potential of Peptide 19-2.5 and the structurally related compound Peptide 19-4LF has been investigated for their therapeutic application in bacterial skin infections. Primary human keratinocytes responded to TLR2 (FSL-1) but not TLR4 (LPS) activation by increased IL-8 production which was determined with ELISA. […] To detect phosphorylation of the intracellular proteins Western Blot was performed. Gene expression was evaluated by quantitative real-time PCR. […] In addition to acute inflammation, bacterial infections often result in impaired wound healing. Since re-epithelialization is a critical step in wound repair, we tested whether Peptide 19-2.5 affects keratinocyte migration.

[3] = tested on: Escherichia coli ESBL (CUN E20)
keratinocyte migration = test: Scratch assay, keratinocyte migration; type: cell-based
Experimental: as §1

[4] = tested on: monocyte-derived dendritic cells (MoDCs); test: LPS-stimulated monocyte-derived dendritic cells: maturation, migration, IL-6; type: cell-based
Excerpt: In monocyte-derived dendritic cells (MoDCs), Pep19-2.5 inhibited LPS-mediated upregulation of the maturation marker CD83 and the co-stimulatory molecule CD80 at a peptide:LPS weight ratio of 1000:1.
as §1

[5] = tested on: open wound with wound infections (Staphylococcus aureus, Parvimonas micra, β-hemolysing Streptococcus, Pseudomonas aeruginosa); test: Healing attempt, infected open wound of a patient, topical salve; type: in vivo; settings: for Effect on wound: topical
Excerpt: A patient had—due to a cured tumor in the back—an open wound (see picture at t=0). […] Therefore, a conservative wound treatment was initiated. The wound's localization required the involvement of an ambulant nursing service who took over the daily care. Nevertheless, in sporadic intervals, wound infections occurred which inhibited the healing process. […] Over 6 years, all therapeutical approaches with different antibiotics and topically applied salve formulations failed. In November 2014 the patient was informed about the possibility of a, healing attempt′, to which they agreed. […] This therapeutically effect can be explained only from the use of the Aspidasept® salve, since all other parameters were not changed. The wound is now completely closed.

[6] = tested on: Pseudomonas aeruginosa biofilm; test: Inactivation of biofilm from Pseudomonas aeruginosa with GFP-labelled bacteria; type: cell-based; settings: short-time treatment (1 h), FIG. 2
Experimental: FIG. 2: Inactivation of a biofilm from Pseudomonas aeruginosa with GFP-labelled bacteria (GFP: Green-Fluorescent Protein). Living bacteria: white, inactivated bacteria: dark.
The micrographics shown that only a small fraction of the surface was covered by live bacteria forming a biofilm after 1 h (B) compared with the untreated one (A).

[7] = tested on: Pseudomonas aeruginosa PS4; test: CDC Biofilm Reactor, inhibition of biofilm formation; type: cell-based; settings: with and without levofloxacin, 24 hours treatment, FIG. 8
Experimental: The data shown in FIG. 8 were obtained in experiments carried out using the Center for Disease Control (CDC) Biofilm Reactor (CBR). In this case, clinical strain Pseudomonas aeruginosa PS4 was incubated in TSB under continuous shaking for 24 hours, followed by additional 24 hours growth with a flow of diluted TSB. Samples received treatments during another 24 hours dissolved at Phosphate Buffer at 37° C. Biofilms were scraped and serially diluted prior to plating and counting. For confocal microscopy, Biofilms were stained using Live/Death BacLight (Life technologies, Carlsbad, California, USA).

Row | Compound | Inhibition of TNFα formation ([1]; 10 μg/ml peptide) | Inhibition of M. tuberculosis-induced TNF formation (in words) [1] | Inhibition of M. tuberculosis-induced TNF formation (in words) ([1]; listed as Pep19-2.5) | IL-8 release / IL-8 inducing activity of FSL-1 [2] | MIC ([3]; ESBL (CUN E20)) | Concentration promoting cell migration and accelerating artificial wound closure (as low as) (keratinocyte migration) | Potency in promoting cell migration relative to TGF-β (keratinocyte migration) | LPS-induced migration of MoDCs and CCR7 gene expression ([4]; FIG. 6) | LPS-mediated upregulation of maturation marker CD83 and co-stimulatory molecule CD80 ([4]; peptide:LPS weight ratio of 1000:1) | Effect on wound ([5]; 0.1% in salve (DAC-base cream)) | Reduction of the diameter of the wound ([5]; 1% in salve, after 2 months) | Wound healing ([5]; 1% in salve, after 6 months) | Effect on wound ([5]; 1% in salve) | MIC ([3]; individual agents, Mueller-Hinton medium) | Inactivation of biofilm bacteria [6] | Inhibition of biofilm formation [7]
1 | N=C(N)NCCC[C@H](NC(=O)[C@H](Cc1ccc(O)cc1)NC(=O)[C@H](CCCCN)NC(=O)[C@H](CCCCN)NC(=O)[C@H](CS)NC(=O)CN)C(=O)N[C@@H](CCCNC(=N)N)C(=O)N[C@@H](Cc1ccccc1)C(=O)N[C@@H](CCCNC(=N)N)C(=O)N[C@@H](Cc1c[nH]c2ccccc12)C(=O)N[C@@H](CCCCN)C(=O)N[C@@H](Cc1ccccc1)C(=O)N[C@@H](CCCCN)C(=O)NCC(=O)N[C@@H](CCCCN)C(=O)N[C@@H](Cc1ccccc1)C(=O)N[C@@H](Cc1c[nH]c2ccccc12)C(=O)N[C@@H](Cc1ccccc1)C(=O)N[C@@H](Cc1c[nH]c2ccccc12)C(=O)NCC(=O)O [Peptide 19-2.5] | more than 50% | Does dependent inhibition | strongest anti-TNFα activity | reduce IL-8 release | 128 µg/mL (≈ 47.2 µM) | 1 ng/mL | equipotent to TGF-β | completely blocked | inhibited | no effect | 50% | completely healed | significant effect |  |  | 
2 | CO/N=C(\C(=O)N[C@@H]1C(=O)N2C(C(=O)O)=C(CSc3nc(=O)c(O)nn3C)CS[C@H]12)c1csc(N)n1 [Ceftriaxon, Ceftriaxone, reference compound] |  |  |  |  |  |  |  |  |  |  |  |  |  | 16 µg/mL (≈ 28.9 µM) |  | 
3 | GKKYRRFRWKFKGKLFLFG [Peptide 19-4LF, GKKYRRFRWKFKGKLFLFG] |  |  |  | reduce IL-8 release | 16 µg/mL |  |  |  |  |  |  |  |  |  | most bacteria are inactivated | Inhibition of biofilm formation
